Tests used:
[1] = molecular target: Calcium/calmodulin-dependent protein kinase type II subunit beta (Homo sapiens) (UniProt Q13554); experiment: Inhibition of wild-type human partial length CAMK2B (M1 to Q380 residues) expressed in bacterial expression system at 1 uM by Kinomescan method relative to control
[2] = molecular target: Calcium/calmodulin-dependent protein kinase type IV (Homo sapiens) (UniProt Q16566); experiment: Inhibition of wild-type human partial length CAMK4 (A22 to A322 residues) expressed in bacterial expression system at 1 uM by Kinomescan method relative to control
Chain of Calcium/calmodulin-dependent protein kinase type IV (Homo sapiens) (Q16566 whole entry, the tested form may be a part): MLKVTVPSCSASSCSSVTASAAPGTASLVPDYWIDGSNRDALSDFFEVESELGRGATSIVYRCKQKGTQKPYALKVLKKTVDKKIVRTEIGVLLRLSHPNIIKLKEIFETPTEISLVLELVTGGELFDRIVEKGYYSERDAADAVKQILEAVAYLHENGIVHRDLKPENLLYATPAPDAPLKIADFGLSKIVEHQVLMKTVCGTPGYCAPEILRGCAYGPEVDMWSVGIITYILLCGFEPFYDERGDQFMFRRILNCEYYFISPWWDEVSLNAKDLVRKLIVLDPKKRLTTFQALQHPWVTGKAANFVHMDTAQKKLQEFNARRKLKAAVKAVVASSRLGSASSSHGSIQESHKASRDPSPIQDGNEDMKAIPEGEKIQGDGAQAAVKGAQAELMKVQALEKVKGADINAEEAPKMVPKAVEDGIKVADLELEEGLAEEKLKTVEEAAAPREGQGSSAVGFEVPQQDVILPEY

[3] = molecular target: CDK4/Cyclin D3 (Homo sapiens) (UniProt P11802+P30281); experiment: Inhibition of wild-type human full length CDK4/cyclinD3 (M1 to E303 residues) expressed in mammalian expression system at 1 uM by Kinomescan method relative to control
[4] = molecular target: Cyclin-dependent kinase-like 2 (Homo sapiens) (UniProt Q92772); experiment: Inhibition of wild-type human partial length CDKL2 (M1 to D327 residues) expressed in bacterial expression system at 1 uM by Kinomescan method relative to control
[5] = molecular target: Epithelial discoidin domain-containing receptor 1 (Homo sapiens) (UniProt Q08345); experiment: Inhibition of wild-type human partial length DDR1 (R565 to V876 residues) expressed in bacterial expression system at 1 uM by Kinomescan method relative to control
[6] = system: Epidermal growth factor receptor (Homo sapiens), P00533 [L858R]; experiment: Inhibition of human partial length EGFR L858R mutant (R669 to V1011 residues) expressed in bacterial expression system at 1 uM by Kinomescan method relative to control
Chain of Epidermal growth factor receptor (Homo sapiens), P00533 [L858R] (P00533 whole entry L858R, the tested form may be a part): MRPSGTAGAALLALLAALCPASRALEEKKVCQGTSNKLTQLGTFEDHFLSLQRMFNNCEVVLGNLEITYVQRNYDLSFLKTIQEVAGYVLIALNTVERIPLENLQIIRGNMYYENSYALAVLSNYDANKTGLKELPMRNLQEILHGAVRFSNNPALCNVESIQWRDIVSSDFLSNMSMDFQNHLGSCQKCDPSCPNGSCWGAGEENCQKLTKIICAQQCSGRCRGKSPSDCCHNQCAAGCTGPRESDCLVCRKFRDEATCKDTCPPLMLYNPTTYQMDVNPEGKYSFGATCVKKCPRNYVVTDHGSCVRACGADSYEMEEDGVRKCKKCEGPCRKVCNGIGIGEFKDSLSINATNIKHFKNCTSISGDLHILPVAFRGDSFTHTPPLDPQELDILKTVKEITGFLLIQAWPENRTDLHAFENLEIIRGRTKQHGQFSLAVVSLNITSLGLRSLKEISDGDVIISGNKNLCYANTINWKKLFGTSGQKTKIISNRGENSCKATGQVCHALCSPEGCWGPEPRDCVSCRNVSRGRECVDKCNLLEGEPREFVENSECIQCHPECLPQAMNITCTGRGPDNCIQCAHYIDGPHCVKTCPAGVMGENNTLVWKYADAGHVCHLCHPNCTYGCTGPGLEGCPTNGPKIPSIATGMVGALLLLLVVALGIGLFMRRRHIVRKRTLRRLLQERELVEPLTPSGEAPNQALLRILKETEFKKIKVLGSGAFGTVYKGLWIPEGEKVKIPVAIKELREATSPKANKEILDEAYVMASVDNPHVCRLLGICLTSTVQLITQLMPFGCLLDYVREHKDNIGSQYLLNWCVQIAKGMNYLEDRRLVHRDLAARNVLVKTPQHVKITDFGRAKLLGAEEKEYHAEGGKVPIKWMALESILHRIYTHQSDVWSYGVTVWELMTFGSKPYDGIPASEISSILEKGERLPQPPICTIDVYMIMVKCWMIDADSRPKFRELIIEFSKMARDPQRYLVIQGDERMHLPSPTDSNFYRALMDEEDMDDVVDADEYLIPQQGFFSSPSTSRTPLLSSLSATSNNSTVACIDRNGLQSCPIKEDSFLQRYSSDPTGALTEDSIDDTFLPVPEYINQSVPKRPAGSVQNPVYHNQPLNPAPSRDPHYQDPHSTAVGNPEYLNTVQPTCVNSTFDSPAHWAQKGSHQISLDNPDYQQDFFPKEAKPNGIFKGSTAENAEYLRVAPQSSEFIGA

[7] = molecular target: Tyrosine-protein kinase Fyn (Homo sapiens) (UniProt P06241); experiment: Inhibition of wild-type human partial length FYN (T243 to L534 residues) expressed in bacterial expression system at 1 uM by Kinomescan method relative to control
[8] = system: Mast/stem cell growth factor receptor Kit (Homo sapiens), P10721 [UNDEFINED MUTATION]; experiment: Inhibition of human partial length KIT V559D/V654 double mutant (Y545 to D952 residues) expressed in bacterial expression system at 1 uM by Kinomescan method relative to control
[9] = molecular target: Mitogen-activated protein kinase kinase kinase 2 (Homo sapiens) (UniProt Q9Y2U5); experiment: Inhibition of wild-type human partial length MAP3K2 (S315 to H619 residues) expressed in mammalian expression system at 1 uM by Kinomescan method relative to control
[10] = molecular target: Phosphorylase b kinase gamma catalytic chain, liver/testis isoform (Homo sapiens) (UniProt P15735); experiment: Inhibition of wild-type human partial length PHKG2 (M1 to W300 residues) expressed in bacterial expression system at 1 uM by Kinomescan method relative to control
[11] = molecular target: Phosphatidylinositol 4-phosphate 5-kinase type-1 alpha (Homo sapiens) (UniProt Q99755); experiment: Inhibition of wild-type human full length PIP5K1A (M1 to H562 residues) expressed in bacterial expression system at 1 uM by Kinomescan method relative to control
Chain of Phosphatidylinositol 4-phosphate 5-kinase type-1 alpha (Homo sapiens) (Q99755 whole entry, the tested form may be a part): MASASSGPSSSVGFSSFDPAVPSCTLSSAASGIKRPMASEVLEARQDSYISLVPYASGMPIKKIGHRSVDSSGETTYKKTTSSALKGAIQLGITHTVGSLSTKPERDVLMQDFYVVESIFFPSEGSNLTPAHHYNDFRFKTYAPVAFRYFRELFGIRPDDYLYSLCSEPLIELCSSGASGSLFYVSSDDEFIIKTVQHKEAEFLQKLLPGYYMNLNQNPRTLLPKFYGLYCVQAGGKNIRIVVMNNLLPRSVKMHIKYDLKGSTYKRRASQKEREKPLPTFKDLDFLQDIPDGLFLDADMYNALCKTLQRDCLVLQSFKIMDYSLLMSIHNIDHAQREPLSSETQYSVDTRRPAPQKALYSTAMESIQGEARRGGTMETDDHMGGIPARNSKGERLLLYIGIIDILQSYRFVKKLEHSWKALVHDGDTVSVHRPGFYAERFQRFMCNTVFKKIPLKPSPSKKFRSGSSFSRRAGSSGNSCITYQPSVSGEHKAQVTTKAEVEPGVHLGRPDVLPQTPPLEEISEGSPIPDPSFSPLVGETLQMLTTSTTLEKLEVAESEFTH

[12] = molecular target: STE20-like serine/threonine-protein kinase (Homo sapiens) (UniProt Q9H2G2); experiment: Inhibition of wild-type human partial length SLK (S14 to A307 residues) expressed in bacterial expression system at 1 uM by Kinomescan method relative to control
Chain of STE20-like serine/threonine-protein kinase (Homo sapiens) (Q9H2G2 whole entry, looked up, the tested form may be a part): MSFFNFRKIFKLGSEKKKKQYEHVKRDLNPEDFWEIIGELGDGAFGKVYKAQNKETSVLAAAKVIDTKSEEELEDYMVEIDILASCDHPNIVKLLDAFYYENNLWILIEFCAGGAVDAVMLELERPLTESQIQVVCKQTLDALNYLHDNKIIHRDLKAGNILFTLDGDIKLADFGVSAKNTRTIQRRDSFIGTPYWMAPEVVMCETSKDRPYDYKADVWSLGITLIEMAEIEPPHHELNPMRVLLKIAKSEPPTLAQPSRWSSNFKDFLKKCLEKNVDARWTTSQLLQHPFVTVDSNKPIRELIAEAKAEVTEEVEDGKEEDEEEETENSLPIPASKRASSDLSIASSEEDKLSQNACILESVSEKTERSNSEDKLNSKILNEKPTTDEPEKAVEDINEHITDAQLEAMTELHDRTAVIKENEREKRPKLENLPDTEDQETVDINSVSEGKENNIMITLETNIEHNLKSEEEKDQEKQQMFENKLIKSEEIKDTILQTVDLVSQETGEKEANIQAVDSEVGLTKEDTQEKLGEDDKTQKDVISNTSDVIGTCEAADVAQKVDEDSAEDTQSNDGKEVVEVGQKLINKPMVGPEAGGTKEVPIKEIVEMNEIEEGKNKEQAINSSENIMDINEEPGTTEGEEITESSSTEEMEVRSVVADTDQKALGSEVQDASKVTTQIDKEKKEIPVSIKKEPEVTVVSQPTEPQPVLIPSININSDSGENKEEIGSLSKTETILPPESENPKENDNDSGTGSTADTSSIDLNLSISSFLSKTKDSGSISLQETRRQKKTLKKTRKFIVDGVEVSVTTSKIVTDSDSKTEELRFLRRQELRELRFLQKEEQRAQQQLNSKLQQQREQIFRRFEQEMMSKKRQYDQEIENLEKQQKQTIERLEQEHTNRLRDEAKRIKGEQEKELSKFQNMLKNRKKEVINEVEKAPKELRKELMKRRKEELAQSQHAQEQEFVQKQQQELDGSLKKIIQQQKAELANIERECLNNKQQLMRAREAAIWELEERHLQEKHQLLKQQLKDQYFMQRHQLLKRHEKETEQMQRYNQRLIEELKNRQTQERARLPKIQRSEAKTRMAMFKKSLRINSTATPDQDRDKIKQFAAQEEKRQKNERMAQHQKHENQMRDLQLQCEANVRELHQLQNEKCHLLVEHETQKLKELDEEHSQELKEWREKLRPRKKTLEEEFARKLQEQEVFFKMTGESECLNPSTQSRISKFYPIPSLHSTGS

[13] = system: Tyrosine-protein kinase ABL1 (Homo sapiens), P00519 [T315I]; experiment: Inhibition of human non-phosphorylated ABL1 T315I mutant (S229 to K512 residues) expressed in mammalian expression system at 10 uM by Kinomescan method relative to control
[14] = molecular target: Cyclin-dependent kinase 4/cyclin D1 (Homo sapiens) (UniProt P11802+P24385); experiment: Inhibition of wild-type human full length CDK4/cyclinD1 (M1 to E303 residues) expressed in mammalian expression system at 10 uM by Kinomescan method relative to control
[15] = molecular target: Macrophage colony-stimulating factor 1 receptor (Homo sapiens) (UniProt P07333); experiment: Inhibition of wild-type human partial length autoinhibited CSF1R (Y538 to S939 residues) expressed in mammalian expression system at 10 uM by Kinomescan method relative to control
[16] = system: Receptor-type tyrosine-protein kinase FLT3 (Homo sapiens), P36888 [UNDEFINED MUTATION]; experiment: Inhibition of human partial length FLT3 ITD/D835V double mutant expressed in bacterial expression system at 10 uM by Kinomescan method relative to control
[17] = molecular target: Tyrosine-protein kinase HCK (Homo sapiens) (UniProt P08631); experiment: Inhibition of wild-type human full length HCK (M22 to P526 residues) expressed in bacterial expression system at 10 uM by Kinomescan method relative to control
[18] = molecular target: Tyrosine-protein kinase JAK3 (Homo sapiens) (UniProt P52333); experiment: Inhibition of wild-type human partial length JAK3 JH1 catalytic domain (I781 to S1124 residues) expressed in mammalian expression system at 10 uM by Kinomescan method relative to control
[19] = system: Hepatocyte growth factor receptor (Homo sapiens), P08581 [Y1235D]; experiment: Inhibition of human partial length MET Y1235D mutant (D1010 to S1367 residues) expressed in bacterial expression system at 10 uM by Kinomescan method relative to control
[20] = molecular target: Serine/threonine-protein kinase Nek4 (Homo sapiens) (UniProt P51957); experiment: Inhibition of wild-type human full length NEK4 (M1 to F841 residues) expressed in mammalian expression system at 10 uM by Kinomescan method relative to control
[21] = molecular target: Cyclin-dependent kinase 14 (Homo sapiens) (UniProt O94921); experiment: Inhibition of wild-type human full length PFTK1 (M1 to H451 residues) expressed in bacterial expression system at 10 uM by Kinomescan method relative to control
[22] = molecular target: Serine/threonine-protein kinase PRP4 homolog (Homo sapiens) (UniProt Q13523); experiment: Inhibition of wild-type human partial length PRP4 (D657 to I1007 residues) expressed in bacterial expression system at 10 uM by Kinomescan method relative to control
[23] = molecular target: RAF proto-oncogene serine/threonine-protein kinase (Homo sapiens) (UniProt P04049); experiment: Inhibition of wild-type human partial length RAF1 (I330 to T640 residues) expressed in bacterial expression system at 10 uM by Kinomescan method relative to control
Chain of RAF proto-oncogene serine/threonine-protein kinase (Homo sapiens) (P04049 whole entry, the tested form may be a part): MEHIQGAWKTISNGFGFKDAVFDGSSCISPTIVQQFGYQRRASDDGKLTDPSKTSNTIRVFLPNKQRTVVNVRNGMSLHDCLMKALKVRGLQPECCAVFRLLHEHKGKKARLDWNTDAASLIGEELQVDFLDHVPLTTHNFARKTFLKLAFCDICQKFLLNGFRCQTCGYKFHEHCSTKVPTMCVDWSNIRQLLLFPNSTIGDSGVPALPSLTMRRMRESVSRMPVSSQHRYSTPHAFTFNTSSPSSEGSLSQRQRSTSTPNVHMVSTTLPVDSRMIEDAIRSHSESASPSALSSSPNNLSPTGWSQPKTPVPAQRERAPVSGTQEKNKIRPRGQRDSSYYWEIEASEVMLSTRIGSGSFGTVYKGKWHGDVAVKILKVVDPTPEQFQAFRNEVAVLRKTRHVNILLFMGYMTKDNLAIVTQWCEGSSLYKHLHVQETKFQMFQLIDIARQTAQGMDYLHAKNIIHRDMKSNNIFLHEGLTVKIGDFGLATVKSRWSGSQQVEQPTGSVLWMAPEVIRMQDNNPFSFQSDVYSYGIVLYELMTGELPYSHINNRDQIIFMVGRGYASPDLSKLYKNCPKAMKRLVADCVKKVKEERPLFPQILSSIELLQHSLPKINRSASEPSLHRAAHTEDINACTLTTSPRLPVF

[24] = molecular target: Ribosomal protein S6 kinase alpha-2 (Homo sapiens) (UniProt Q15349); experiment: Inhibition of wild-type human partial length C-terminal RSK3 kinase domain 2 (V403 to K700 residues) expressed in bacterial expression system at 10 uM by Kinomescan method relative to control
[25] = molecular target: Tyrosine-protein kinase receptor TYRO3 (Homo sapiens) (UniProt Q06418); experiment: Inhibition of wild-type human partial length TYRO3 (S497 to T814 residues) expressed in bacterial expression system at 10 uM by Kinomescan method relative to control
[26] = molecular target: Mitogen-activated protein kinase kinase kinase 12 (Homo sapiens) (UniProt Q12852); experiment: Inhibition of wild-type human full length DLK (M1 to P859 residues) expressed in mammalian expression system at 10 uM by Kinomescan method relative to control

Chain of Calcium/calmodulin-dependent protein kinase type II subunit beta (Homo sapiens) (Q13554 whole entry, the tested form may be a part): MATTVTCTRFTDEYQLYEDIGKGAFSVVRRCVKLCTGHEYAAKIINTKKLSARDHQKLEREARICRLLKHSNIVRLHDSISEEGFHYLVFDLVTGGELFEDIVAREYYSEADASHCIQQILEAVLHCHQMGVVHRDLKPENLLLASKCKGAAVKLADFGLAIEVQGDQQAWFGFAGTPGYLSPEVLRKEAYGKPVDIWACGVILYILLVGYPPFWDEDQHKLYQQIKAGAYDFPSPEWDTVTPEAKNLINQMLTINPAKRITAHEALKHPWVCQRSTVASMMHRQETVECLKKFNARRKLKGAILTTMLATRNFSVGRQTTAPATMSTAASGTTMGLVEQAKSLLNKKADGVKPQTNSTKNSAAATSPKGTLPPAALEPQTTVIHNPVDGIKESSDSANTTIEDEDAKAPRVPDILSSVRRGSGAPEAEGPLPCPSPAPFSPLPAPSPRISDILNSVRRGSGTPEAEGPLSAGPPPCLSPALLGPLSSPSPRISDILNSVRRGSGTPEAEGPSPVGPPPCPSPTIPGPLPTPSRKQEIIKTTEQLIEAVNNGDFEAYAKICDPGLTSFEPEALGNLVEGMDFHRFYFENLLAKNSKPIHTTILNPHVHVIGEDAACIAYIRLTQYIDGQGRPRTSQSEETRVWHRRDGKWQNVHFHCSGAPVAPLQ

Structure (SMILES): O=C(Nc1cccc([C@@H]2CN(c3ncnc4[nH]ccc34)CCN2CCO)c1)Nc1c(F)cccc1N1CCCC1
- inhibition [1]: 92%
- inhibition [2]: 100%
- inhibition [3]: 100%
- inhibition [4]: 100%
- inhibition [5]: 82%
- inhibition [6]: 99%
- inhibition [7]: 52%
- inhibition [8]: 65%
- inhibition [9]: 40%
- inhibition [10]: 100%
- inhibition [11]: 76%
- inhibition [12]: 88%

Structure (SMILES): O=C(Nc1cccc([C@H]2CCCN(c3ncnc4[nH]ccc34)C2)c1)Nc1ccccc1N1CCCC1
- inhibition [13]: 65%
- inhibition [14]: 74%
- inhibition [15]: 64%
- inhibition [16]: 8.3%
- inhibition [17]: 98%
- inhibition [18]: 0.35%
- inhibition [19]: 78%
- inhibition [20]: 87%
- inhibition [21]: 61%
- inhibition [22]: 17%
- inhibition [23]: 86%
- inhibition [24]: 66%
- inhibition [25]: 100%
- inhibition [26]: 69%

Reference: ChEMBL document CHEMBL4387741, “Optimization of novel reversible Bruton's tyrosine kinase inhibitors identified using Tethering-fragment-based screens” (Bioorg Med Chem, 2019)
